pIC50: −log10 of the molar value.
How the values were obtained:
Type in all cases: biochemical
full-length human PHD2 = biological target: T1, full-length human PHD2 (Homo sapiens, UniProt Q9GZT9); test: TR-FRET assay for PHD enzymes, PHD2; settings: read-out: PHD2 IC5 0
T1 construct: The PHD2 construct contained amino acids 1 to 426 of PHD2; His tag (N, cleaved yes); TEV protease cleavage site (N, cleaved yes); host or cells: Sf9 insect cells (baculovirus)
Method: (§1) The resulting proximity of the donor fluorophore complex, monoclonal antibody anti-6His-Terbium (Tb)-cryptate Gold, bound to the His-tagged VHL protein, EloB, EloC complex (His-VBC) and the acceptor fluorophore, SA-D2 complex, bound to HIF-1α-hydroxyproline results in a fluorescence resonance energy transfer signal that can be detected and quantified
(§2) For this, 5 μL PHD inhibitor compound was serially diluted with dilution buffer (50 mM HEPES [4-(2-hydroxyethyl)-1-piperazineethanesulfonic acid] pH 7.5, 50 mM sodium chloride [NaCl], 0.01% Tween-20, 0.01% purified bovine serum albumin [BSA]) and mixed with 5 μL PHD enzyme mix prepared as a 4× concentrate in the dilution buffer containing PHD enzyme (60 nM PHD1, 20 nM PHD2, 140 nM PHD3), 40 μM ferrous ammonium sulfate (FAS), 4 mM sodium (Na) ascorbate.
(§3) The IC50 values (mean, standard deviation, standard error of the mean, geometric mean and 95% confidence interval) were determined using a four-parameter curve-fit using GraphPad Prism 7.0 (GraphPad, La Jolla, Calif., USA) and represent the compound concentration plotted against the calculated ratio of 665 nm and 615 nm.

full-length human PHD1 = biological target: T2, full-length human PHD1 (Homo sapiens, UniProt Q96KS0); test: TR-FRET assay for PHD enzymes, PHD1
T2 construct: FLAG (N); purchased Active Motif (Carlsbad, Calif., USA) 81064; host or cells: baculovirus expression system
Source text: as §1
Recombinant human PHD1 protein (catalog #81064, Lot #24717001) was purchased from Active Motif (Carlsbad, Calif., USA). PHD1 was expressed in a baculovirus expression system as the full-length protein (NCBI accession number NP_542770.2) with an N-terminal FLAG tag (molecular weight 44.9 kDa). Purity (>90%) was assessed by SDS-PAGE.
as §2, §3

full-length human PHD3 = biological target: T3, full-length human PHD3 (Homo sapiens, UniProt Q9H6Z9); test: TR-FRET assay for PHD enzymes, PHD3
T3 construct: 6-His (N); purchased Active Motif (Carlsbad, Calif., USA) 81033; host or cells: E. coli
Source text: as §1
Recombinant human PHD3 protein (molecular weight 31.1 kDa) was purchased from Active Motif (Carlsbad, Calif., USA). It was expressed in E. coli as the full-length protein (NCBI accession number NP_071356.1) with an N-terminal 6-His tag (catalog #81033, Lot #24417001).
as §2, §3

T2 sequence (Q96KS0 whole entry): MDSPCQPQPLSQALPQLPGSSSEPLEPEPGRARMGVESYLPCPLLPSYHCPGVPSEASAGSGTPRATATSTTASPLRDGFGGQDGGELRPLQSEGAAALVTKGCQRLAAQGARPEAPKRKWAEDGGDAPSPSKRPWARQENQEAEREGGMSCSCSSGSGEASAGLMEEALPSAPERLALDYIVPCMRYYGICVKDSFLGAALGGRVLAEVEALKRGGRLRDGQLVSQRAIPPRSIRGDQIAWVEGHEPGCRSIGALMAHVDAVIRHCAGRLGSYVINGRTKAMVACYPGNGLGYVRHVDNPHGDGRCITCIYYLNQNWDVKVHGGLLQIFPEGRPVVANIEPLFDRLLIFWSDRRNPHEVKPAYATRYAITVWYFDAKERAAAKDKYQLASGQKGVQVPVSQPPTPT
T3 sequence (Q9H6Z9 whole entry): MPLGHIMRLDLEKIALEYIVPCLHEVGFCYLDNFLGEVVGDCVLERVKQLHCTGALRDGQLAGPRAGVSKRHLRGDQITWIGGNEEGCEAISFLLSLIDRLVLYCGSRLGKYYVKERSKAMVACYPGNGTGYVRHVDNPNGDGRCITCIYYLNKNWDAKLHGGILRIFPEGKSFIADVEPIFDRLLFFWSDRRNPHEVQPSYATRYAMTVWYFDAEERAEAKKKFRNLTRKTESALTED
T1 sequence (Q9GZT9 whole entry, the tested form may be a part): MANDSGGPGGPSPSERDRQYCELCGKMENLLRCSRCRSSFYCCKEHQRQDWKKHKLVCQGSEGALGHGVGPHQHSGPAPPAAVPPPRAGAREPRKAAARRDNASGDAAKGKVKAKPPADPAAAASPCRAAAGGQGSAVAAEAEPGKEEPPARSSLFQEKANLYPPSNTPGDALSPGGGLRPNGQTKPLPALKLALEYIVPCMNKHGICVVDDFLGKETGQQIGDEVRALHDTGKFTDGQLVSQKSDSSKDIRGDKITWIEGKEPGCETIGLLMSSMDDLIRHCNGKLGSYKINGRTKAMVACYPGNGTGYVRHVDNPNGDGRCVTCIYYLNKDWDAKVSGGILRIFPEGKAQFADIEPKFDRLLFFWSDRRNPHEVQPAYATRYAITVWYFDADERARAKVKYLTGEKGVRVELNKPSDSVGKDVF

SMILES | pIC50 (full-length human PHD2) | pIC50 (full-length human PHD1) | pIC50 (full-length human PHD3)
O=C(O)c1ccc(-n2ncc(-c3ccc(Cl)nc3)c2O)nc1 [Compound 17, 6-(4-(6-chloropyridin-3-yl)-5-hydroxy-1H-pyrazol-1-yl)nicotinic acid] | > 7.00 | > 7.00 | > 7.00
Cc1cc(-n2nc(C)c(-c3ccc(C#N)cc3)c2O)ncc1C(=O)O [Compound 18, 6-(4-(4-cyanophenyl)-5-hydroxy-3-methyl-1H-pyrazol-1-yl)-4-methylnicotinic acid] | > 7.00 | > 7.00 | > 7.00
N#Cc1ccc(-c2cnn(-c3ccc(C(=O)O)cn3)c2O)c(O)c1 [Compound 21, 6-(4-(4-cyano-2-hydroxyphenyl)-5-hydroxy-1H-pyrazol-1-yl)nicotinic acid] | > 7.00 | > 7.00 | 6.00 to 7.00
Cc1cc(C#N)ccc1-c1c(C)nn(-c2ccc(C(=O)O)cn2)c1O [Compound 24, 6-(4-(4-cyano-2-methylphenyl)-5-hydroxy-3-methyl-1H-pyrazol-1-yl)nicotinic acid] | > 7.00 | > 7.00 | > 7.00
Cc1nn(-c2ccc(C(=O)O)cn2)c(O)c1-c1ccc(Cl)c(F)c1 [Compound 26, 6-(4-(4-chloro-3-fluorophenyl)-5-hydroxy-3-methyl-1H-pyrazol-1-yl)nicotinic acid] | > 7.00 | > 7.00 | 6.00 to 7.00
Cc1nn(-c2ccc(C(=O)O)cn2)c(O)c1-c1ccc(Cl)cc1F [Compound 28, 6-(4-(4-chloro-2-fluorophenyl)-5-hydroxy-3-methyl-1H-pyrazol-1-yl)nicotinic acid] | 6.00 to 7.00 | > 7.00 | 6.00 to 7.00
COc1cc(-c2cnn(-c3ccc(C(=O)OC(C)(C)C)cn3)c2O)ccn1 [Compound 35, Tert-butyl 6-(5-hydroxy-4-(2-methoxypyridin-4-yl)-1H-pyrazol-1-yl)nicotinate] | > 7.00 | > 7.00 | > 7.00
CCOC(=O)c1ccc(-n2ncc(-c3ccc(C#N)cc3)c2O)nc1 [Compound 36, Ethyl 6-(4-(4-cyanophenyl)-5-hydroxy-1H-pyrazol-1-yl)nicotinate] | > 7.00 | > 7.00 | > 7.00
CC(C)OC(=O)c1ccc(-n2ncc(-c3ccc(C#N)cc3)c2O)nc1 [Compound 37, Isopropyl 6-(4-(4-cyanophenyl)-5-hydroxy-1H-pyrazol-1-yl)nicotinate] | > 7.00 | > 7.00 | > 7.00
CC(C)(C)OC(=O)c1ccc(-n2ncc(-c3ccc(C#N)cc3)c2O)nc1 [Compound 38, Tert-butyl 6-(4-(4-cyanophenyl)-5-hydroxy-1H-pyrazol-1-yl)nicotinate] | > 7.00 | > 7.00 | 5.00 to 6.00
O=C(O)c1ccc(-n2ncc(-c3ccc(Cl)cc3O)c2O)nc1 [Compound 39, 6-(4-(4-chloro-2-hydroxyphenyl)-5-hydroxy-1H-pyrazol-1-yl)nicotinic acid] | > 7.00 | 6.00 to 7.00 | 5.00 to 6.00

From patent publication US20230227426A1 (Akebia Therapeutics, Inc., priority 2020, published 2023)
